Data: ChEMBL document CHEMBL5385846, “Discovery and development of palmatine analogues as anti-NASH agents by activating farnesoid X receptor (FXR)” (Eur J Med Chem, 2023)
Active and inactive are the calls of the source. No cut-off for these calls is given here.

Assays:
[1] = target: Collagen alpha-1(I) chain (Homo sapiens) (UniProt P02452); experiment: Inhibition of COL1A1 (unknown origin) expressed in human LX2 cells at 20 micromol/L incubated for 48 hrs by Bright-Glo luciferase assay relative to control; format: cell-based; settings: dose 20.0 µmol/L
[2] = Cytotoxicity against human LX2 cells assessed as inhibition of cell growth; format: toxicity, cell-based, LX-2
[3] = system: COL1A1; experiment: Selectivity index, ratio of CC50 for cytotoxicity against human LX2 cells to IC50 for inhibition of COL1A1 (unknown origin) expressed in human LX2 cells; format: toxicity, cell-based; settings: read-out: Ratio CC50/IC50
[4] = system: Mus musculus; experiment: Hepatoprotective activity in CDAHFD induced C57BL/6N mouse liver injury model assessed as decrease in total cholesterol at 15 mg/kg,po qd administration for 4 weeks; format: functional, organism-based
[5] = system: Mus musculus; experiment: Hepatoprotective activity in CDAHFD induced C57BL/6N mouse liver injury model assessed as decrease in triglyceride level at 15 mg/kg,po qd administration for 4 weeks; format: functional, organism-based
[6] = system: Mus musculus; experiment: Hepatoprotective activity in CDAHFD induced C57BL/6N mouse liver injury model assessed as effect on glucose level at 15 mg/kg,po qd administration for 4 weeks; format: functional, organism-based
[7] = system: Mus musculus; experiment: Hepatoprotective activity in CDAHFD induced C57BL/6N mouse liver injury model assessed as effect on HDL level at 15 mg/kg,po qd administration for 4 weeks; format: functional, organism-based
[8] = system: Mus musculus; experiment: Hepatoprotective activity in CDAHFD induced C57BL/6N mouse liver injury model assessed as effect on total bilirubin level at 15 mg/kg,po qd administration for 4 weeks; format: functional, organism-based
[9] = system: Mus musculus; experiment: Hepatoprotective activity in CDAHFD induced C57BL/6N mouse liver injury model assessed as effect on LDL level at 15 mg/kg,po qd administration for 4 weeks; format: functional, organism-based
[10] = system: Mus musculus; experiment: Hepatoprotective activity in CDAHFD induced C57BL/6N mouse liver injury model assessed as effect on LDH level at 15 mg/kg,po qd administration for 4 weeks; format: functional, organism-based
[11] = system: Mus musculus; experiment: Hepatoprotective activity in CDAHFD induced C57BL/6N mouse liver injury model assessed as effect on ALP level at 15 mg/kg,po qd administration for 4 weeks; format: functional, organism-based
[12] = system: Mus musculus; experiment: Hepatoprotective activity in CDAHFD induced C57BL/6N mouse liver injury model assessed as effect on AST level at 15 mg/kg,po qd administration for 4 weeks; format: functional, organism-based
[13] = system: Mus musculus; experiment: Hepatoprotective activity in CDAHFD induced C57BL/6N mouse liver injury model assessed as effect on ALT level at 15 mg/kg,po qd administration for 4 weeks; format: functional, organism-based

Chain of Collagen alpha-1(I) chain (Homo sapiens) (P02452 whole entry): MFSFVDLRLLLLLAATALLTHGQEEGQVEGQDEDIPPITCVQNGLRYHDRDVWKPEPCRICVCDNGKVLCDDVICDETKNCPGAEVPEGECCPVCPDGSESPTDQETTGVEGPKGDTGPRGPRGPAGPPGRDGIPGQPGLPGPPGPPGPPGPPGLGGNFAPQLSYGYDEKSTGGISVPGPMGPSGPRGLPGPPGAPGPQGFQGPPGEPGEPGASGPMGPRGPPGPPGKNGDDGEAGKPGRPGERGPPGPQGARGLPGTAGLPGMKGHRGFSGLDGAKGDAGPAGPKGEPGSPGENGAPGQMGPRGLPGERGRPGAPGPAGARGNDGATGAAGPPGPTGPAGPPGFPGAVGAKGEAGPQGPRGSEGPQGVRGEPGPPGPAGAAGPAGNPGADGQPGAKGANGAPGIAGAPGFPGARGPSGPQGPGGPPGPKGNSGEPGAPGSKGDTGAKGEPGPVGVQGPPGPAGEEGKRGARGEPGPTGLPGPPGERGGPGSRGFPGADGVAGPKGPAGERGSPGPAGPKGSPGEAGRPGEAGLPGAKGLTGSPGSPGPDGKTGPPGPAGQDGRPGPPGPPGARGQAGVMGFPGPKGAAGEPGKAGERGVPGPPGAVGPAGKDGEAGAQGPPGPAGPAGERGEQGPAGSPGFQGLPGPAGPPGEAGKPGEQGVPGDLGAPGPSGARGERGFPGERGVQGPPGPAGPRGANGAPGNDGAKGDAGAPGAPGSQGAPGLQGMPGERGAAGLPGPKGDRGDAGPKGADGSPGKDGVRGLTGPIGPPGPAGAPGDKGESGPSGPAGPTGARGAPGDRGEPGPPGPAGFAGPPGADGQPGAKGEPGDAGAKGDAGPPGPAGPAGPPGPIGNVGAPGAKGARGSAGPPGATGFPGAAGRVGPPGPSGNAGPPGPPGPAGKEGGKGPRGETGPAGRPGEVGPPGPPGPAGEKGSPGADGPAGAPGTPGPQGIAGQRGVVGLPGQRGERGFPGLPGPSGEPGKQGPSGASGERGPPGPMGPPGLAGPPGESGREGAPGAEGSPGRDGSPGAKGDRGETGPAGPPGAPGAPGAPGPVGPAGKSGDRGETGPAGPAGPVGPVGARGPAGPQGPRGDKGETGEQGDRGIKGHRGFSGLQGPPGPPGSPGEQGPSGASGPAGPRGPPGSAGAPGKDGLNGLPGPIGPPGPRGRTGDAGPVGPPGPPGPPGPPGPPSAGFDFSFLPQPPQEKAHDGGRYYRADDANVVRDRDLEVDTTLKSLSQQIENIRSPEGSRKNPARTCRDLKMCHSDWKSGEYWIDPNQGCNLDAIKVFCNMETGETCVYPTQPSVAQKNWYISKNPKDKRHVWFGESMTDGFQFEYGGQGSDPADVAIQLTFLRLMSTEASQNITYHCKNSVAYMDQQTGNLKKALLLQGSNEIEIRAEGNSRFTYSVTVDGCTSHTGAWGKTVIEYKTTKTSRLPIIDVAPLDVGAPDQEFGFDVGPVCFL

`CCOc1cc2c(cc1OC)-c1cc3ccc(OC)c(NCc4ccc(C)cc4)c3c[n+]1CC2` gave an inhibition [1] of 36%.
`COc1cc2c(cc1OC)-c1cc3ccc(OC)c(NCc4ccc(C)cc4)c3c[n+]1CC2` showed an inhibition [1] of 79.2%, a CC50 [2] of 65.5 µM and a selectivity ratio [3] of 5.82.
In the case of `COc1cc2c(cc1OC)-c1cc3ccc(OC)c(OCCc4ccc(C(F)(F)F)cc4)c3c[n+]1CC2`, the inhibition [1] is reported as 56.3%, the CC50 [2] is reported as 88.9 µM and the selectivity ratio [3] is reported as 6.05.
In the case of `COc1cc2c(cc1OC)-c1cc3ccc(OC)c(OC(=O)Cc4ccc(C(F)(F)F)cc4)c3c[n+]1CC2`, the inhibition [1] is reported as 12.4%.
Work on `CCCC(=O)Nc1c(OC)ccc2cc3[n+](cc12)CCc1cc(OC)c(OC)cc1-3` yielded an inhibition [1] of 5.11%.
With `COc1cc2c(cc1OC)-c1cc3ccc(OC)c(NCc4cccc(C#N)c4)c3c[n+]1CC2` the inhibition [1] was 10.5%.
In the case of `O=C(O[C@@H]1Cc2c(O)cc(O)cc2O[C@@H]1c1cc(O)c(O)c(O)c1)c1cc(O)c(O)c(O)c1`, the inhibition [1] is reported as 27.6%.
Molecule `COc1cc2c(cc1OC)-c1cc3ccc(OC)c(NCc4ccc(Br)cc4)c3c[n+]1CC2` has an inhibition [1] of 18.4%.
In the case of `CCCCCCCOc1c(OC)ccc2cc3[n+](cc12)CCc1cc(OC)c(OC)cc1-3`, the inhibition [1] is reported as 94.4%.
Molecule `COc1cc2c(cc1OC)-c1cc3ccc(OC)c(OCc4cccc(C#N)c4)c3c[n+]1CC2` has an inhibition [1] of 24.1%.
`COc1cc2c(cc1OC)-c1cc3ccc(OC)c(NC(=O)C4CCC4)c3c[n+]1CC2` gave an inhibition [1] of 18.9%.
Work on `COc1cc2c(cc1OC)-c1cc3ccc(OC)c(OCC4CCC4)c3c[n+]1CC2` yielded an inhibition [1] of 9.25%.
For `CC[C@H]1[C@@H](O)[C@@H]2[C@H](CC[C@]3(C)[C@@H]([C@H](C)CCC(=O)O)CC[C@@H]23)[C@@]2(C)CC[C@@H](O)C[C@@H]12`, the Activity [4] was “Active”, the Activity [5] was “Active” and the Activity [6] was “Active”. The Activity [7] was “inactive”, the Activity [8] was “inactive” and the Activity [9] was “inactive”. For the same molecule, the Activity [10] was “inactive”, the Activity [11] was “inactive” and the Activity [12] was “inactive”. For the same molecule, the Activity [13] was “inactive”.
In the case of `CCCCCOc1c(OC)ccc2cc3[n+](cc12)CCc1cc(OC)c(OC)cc1-3`, the inhibition [1] is reported as 36.7%.
In the case of `COc1cc2c(cc1OC)-c1cc3ccc(OC)c(OC(=O)c4ccoc4C)c3c[n+]1CC2`, the inhibition [1] is reported as 9.91%.
`CCC(=O)Nc1c(OC)ccc2cc3[n+](cc12)CCc1cc(OC)c(OC)cc1-3` showed an inhibition [1] of 0%.
Work on `CCCCCCCCC(=O)Nc1c(OC)ccc2cc3[n+](cc12)CCc1cc(OC)c(OC)cc1-3` yielded an inhibition [1] of 16.6%.
In the case of `COc1cc2c(cc1OC)-c1cc3ccc(OC)c(NC(=O)c4cccc(F)c4)c3c[n+]1CC2`, the inhibition [1] is reported as 1.12%.
`CCCCCCNc1c(OC)ccc2cc3[n+](cc12)CCc1cc(OC)c(OC)cc1-3` gave an inhibition [1] of 71.4%.
Molecule `COc1cc2c(cc1OC)-c1cc3ccc(OC)c(OCc4cc(C)cc(C)c4)c3c[n+]1CC2` has an inhibition [1] of 25%.
For `COc1cc2c(cc1OC)-c1cc3ccc(OC)c(OCc4ccccn4)c3c[n+]1CC2`, the inhibition [1] was 15.2%.
Molecule `COc1cc2c(cc1OC)-c1c(Cc3cccc(F)c3)c3ccc(OC)c(OC)c3c[n+]1CC2` has an inhibition [1] of 24.8%.
`COc1ccc(CNc2c(OC)ccc3cc4[n+](cc23)CCc2cc(OC)c(OC)cc2-4)c(OC)c1` showed an inhibition [1] of 36%.
For `COc1cccc(COc2c(OC)ccc3cc4[n+](cc23)CCc2cc(OC)c(OC)cc2-4)c1`, the inhibition [1] was 21.4%.
In the case of `COc1cc2c(cc1OC)-c1cc3ccc(OC)c(NCc4ccccc4)c3c[n+]1CC2`, the inhibition [1] is reported as 25.4%.
`COc1cc2c(cc1OC)-c1cc3ccc(OC)c(NCc4ccc(Cl)cc4)c3c[n+]1CC2` showed an inhibition [1] of 93.6%.
`COc1cc2c(cc1OC)-c1c(Cc3cccc(Br)c3)c3ccc(OC)c(OC)c3c[n+]1CC2` gave an inhibition [1] of 62.8%, a CC50 [2] of 45.5 µM and a selectivity ratio [3] of 3.06.
`COc1ccc(C(=O)Nc2c(OC)ccc3cc4[n+](cc23)CCc2cc(OC)c(OC)cc2-4)cc1` showed an inhibition [1] of 2.39%.
`COc1cc2c(cc1OC)-c1cc3ccc(OC)c(NCc4ccc(F)cc4)c3c[n+]1CC2` showed an inhibition [1] of 23.7%.
`COC(=O)C(Oc1c(OC)ccc2cc3[n+](cc12)CCc1cc(OC)c(OC)cc1-3)c1ccccc1` (stereo not given) gave an inhibition [1] of 23.4%.
`COc1cc2c(cc1OC)-c1cc3ccc(OC)c(NC(=O)C4CCCC4)c3c[n+]1CC2` gave an inhibition [1] of 10.8%.
`COc1cc2c(cc1OC)-c1cc3ccc(OC)c(NC(=O)C4CCCCC4)c3c[n+]1CC2` gave an inhibition [1] of 3.33%.
Molecule `COc1cc2c(cc1OC)-c1cc3ccc(OC)c(NC(=O)c4cc(C)nn4C)c3c[n+]1CC2` has an inhibition [1] of 0%.
Work on `COc1cc2c(cc1OC)-c1cc3ccc(OC)c(OCc4ccc(Cl)cc4)c3c[n+]1CC2` yielded an inhibition [1] of 28.9%.
In the case of `CCCCCCCCCOc1c(OC)ccc2cc3[n+](cc12)CCc1cc(OC)c(OC)cc1-3`, the inhibition [1] is reported as 99.9%.
Work on `CCCNc1c(OC)ccc2cc3[n+](cc12)CCc1cc(OC)c(OC)cc1-3` yielded an inhibition [1] of 22.6%.
For `COc1cc2c(cc1OC)-c1c(Cc3ccc(F)cc3)c3ccc(OC)c(OC)c3c[n+]1CC2`, the inhibition [1] was 22.6%.
`COc1cc2c(cc1OC)-c1c(Cc3ccc(Br)cc3)c3ccc(OC)c(OC)c3c[n+]1CC2` showed an inhibition [1] of 85.7%.
For `CCCCC(=O)Nc1c(OC)ccc2cc3[n+](cc12)CCc1cc(OC)c(OC)cc1-3`, the inhibition [1] was 0%.
For `COc1cc2c(cc1OC)-c1c(Cc3ccc(C#N)cc3)c3ccc(OC)c(OC)c3c[n+]1CC2`, the inhibition [1] was 16.3%.
For `COc1cc2c(cc1OC)-c1c(Cc3ccccc3C)c3ccc(OC)c(OC)c3c[n+]1CC2`, the inhibition [1] was 58.4%, the CC50 [2] was 45.6 µM and the selectivity ratio [3] was 3.21.
`COc1cc2c(cc1OC)-c1c(Cc3cccc(C#N)c3)c3ccc(OC)c(OC)c3c[n+]1CC2` gave an inhibition [1] of 4.38%.
For `COc1cc2c(cc1OC)-c1c(Cc3cccc([N+](=O)[O-])c3)c3ccc(OC)c(OC)c3c[n+]1CC2`, the inhibition [1] was 13%.
With `COc1cc2c(cc1OC)-c1cc3ccc(OC)c(OC(=O)C(=O)c4cccnc4)c3c[n+]1CC2` the inhibition [1] was 6.07%.
With `COc1cc2c(cc1OC)-c1cc3ccc(OC)c(OCC4CC4)c3c[n+]1CC2` the inhibition [1] was 14%.
`COc1ccc(COc2c(OC)ccc3cc4[n+](cc23)CCc2cc(OC)c(OC)cc2-4)cc1OC` gave an inhibition [1] of 12.6%.
For `COc1cc2c(cc1OC)-c1c(Cc3ccc(C(C)C)cc3)c3ccc(OC)c(OC)c3c[n+]1CC2`, the inhibition [1] was 99.9%.
Molecule `COc1cc2c(cc1OC)-c1cc3ccc(OC)c(OC(C)c4ccccc4)c3c[n+]1CC2` (stereo not given) has an inhibition [1] of 22.1%.
Work on `COc1cc2c(cc1OC)-c1c(Cc3ccccc3C#N)c3ccc(OC)c(OC)c3c[n+]1CC2` yielded an inhibition [1] of 24.9%.
In the case of `COc1cc2c(cc1OC)-c1cc3ccc(OC)c(OCc4ccc(C#N)cc4)c3c[n+]1CC2`, the inhibition [1] is reported as 5.2%.
In the case of `COc1cc(Cc2c3[n+](cc4c(OC)c(OC)ccc24)CCc2cc(OC)c(OC)cc2-3)cc(OC)c1`, the inhibition [1] is reported as 39%.
With `COc1cc2c(cc1OC)-c1cc3ccc(OC)c(OCc4ccc(F)cc4)c3c[n+]1CC2` the inhibition [1] was 10.9%.
With `COc1cc2c(cc1OC)-c1c(Cc3cccc(C)c3)c3ccc(OC)c(OC)c3c[n+]1CC2` the inhibition [1] was 0%.
Molecule `COc1cc2c(cc1OC)-c1cc3ccc(OC)c(OCc4ccc(C)cc4)c3c[n+]1CC2` has an inhibition [1] of 25.6%.
In the case of `COc1cc2c(cc1OC)-c1cc3ccc(OC)c(OCc4ccc(C(C)C)cc4)c3c[n+]1CC2`, the inhibition [1] is reported as 75%, the CC50 [2] is reported as 28.7 µM and the selectivity ratio [3] is reported as 3.66.
For `CCOc1cc2c(cc1OC)-c1cc3ccc(OC)c(NCc4ccc(Br)cc4)c3c[n+]1CC2`, the inhibition [1] was 8.92%.
`COc1cc2c(cc1OC)-c1cc3ccc(OC)c(OC(=O)c4ccco4)c3c[n+]1CC2` showed an inhibition [1] of 0%.
In the case of `COc1cc2c(cc1OC)-c1cc3ccc(OC)c(OCc4ccccc4C#N)c3c[n+]1CC2`, the inhibition [1] is reported as 23%.
`COc1cc2c(cc1OC)-c1cc3ccc(OC)c(OCC4CCCC4)c3c[n+]1CC2` showed an inhibition [1] of 46%, a CC50 [2] of 64 µM and a selectivity ratio [3] of 2.65.
`COc1cc2c(cc1OC)-c1cc3ccc(OC)c(OCc4ccc(C(F)(F)F)cc4)c3c[n+]1CC2` showed an inhibition [1] of 38.7%.
`COc1cc2c(cc1OC)-c1cc3ccc(OC)c(NC(=O)c4ccccc4)c3c[n+]1CC2` showed an inhibition [1] of 0%.
Molecule `COC(=O)/C=C/c1ccc(Cc2c3[n+](cc4c(OC)c(OC)ccc24)CCc2cc(OC)c(OC)cc2-3)cc1` has an inhibition [1] of 0%.
In the case of `CCOc1cc2c(cc1OC)-c1cc3ccc(OC)c(NCc4ccc(F)cc4)c3c[n+]1CC2`, the inhibition [1] is reported as 24.8%.
In the case of `CCOc1cc2c(cc1OC)-c1cc3ccc(OC)c(NCc4ccccc4)c3c[n+]1CC2`, the inhibition [1] is reported as 12.4%.
